# Entries after “also recorded” stand apart in the source; their conditions may differ.
# Experiments:
# [1] = system: activated leukocytes; conditions: topical application; cited from earlier work
# [2] = system: formalin-injected mice; assay: Formalin-induced chronic pain-like state (CPLS): persistent hypersensitivity to heat and mechanical stimuli; type: in vivo, mouse; conditions: for pain chronification (contralateral hyperalgesia): GW7647 10 mg-kg^−1 IP, post-procedural day 2-4; for conversion to CPLS (contralateral hyperalgesia, PFD14): maximally effective dosages on PFD2-4: gabapentin 50 mg-kg^−1 IP, morphine 10 mg-kg^−1 subcutaneous, ketamine 4 mg-kg^−1 IP, ketoprofen 100 mg-kg^−1 IP, WT mice, formalin; for alleviation of the hypersensitive state (contralateral hyperalgesia): mouse, in vivo
# [3] = in vivo; cited from earlier work
# [4] = system: mice and rats; conditions: cited from earlier work; for sensory abnormalities caused by carrageenan injection, ultraviolet B-radiation or CCI: mice and rats
# [5] = system: fibrosarcoma-bearing mice; conditions: cited from earlier work
# [6] = system: DRG neurons co-cultured with fibrosarcoma cells; conditions: cited from earlier work
# [7] = system: PEA levels in diseased tissues of CCI and tumor-bearing mice; conditions: cited from earlier work
# [8] = system: formalin-injected mice; assay: Formalin-induced paw edema; type: in vivo, mouse; conditions: pretreatment; ARN16186 10 mg-kg^−1 IP, ARN19702 30 mg-kg^−1 IP; wild-type mice, 1% formalin
# Protocol: Paw edema was measured with a digital caliper (Fisher Scientific, USA) and is expressed as the difference (A paw thickness, mm) between ipsilateral and contralateral paws.
# [9] = system: naïve animals; assay: Baseline nociceptive thresholds in naïve animals; type: in vivo, mouse; conditions: ARN19702 30 mg-kg^−1 IP, ARN16186 10 mg-kg^−1 IP
# [10] = system: formalin-injected mice; assay: Formalin test: acute nocifensive behavior; conditions: pretreatment; ARN16186 10 mg-kg^−1 IP, ARN19702 30 mg-kg^−1 IP; wild-type mice, 1% formalin
# [11] = system: spinal-cord transcription; assay: RNA sequencing and metabolomic analysis of L4-L6 spinal cord; type: in vivo, mouse; conditions: GW7647, post-injury
# Protocol: RNA sequencing and bioinformatics analysis: We extracted total RNA with the RNeasy Mini Kit (Qiagen). Samples with RNA integrity number ≥8.5 were kept for library construction. cDNA synthesis, amplification, library construction, and sequencing were performed at Novogene (Bejing, China) using the Illumina NovaSeq platform with paired-end 150 bp (PE 150) sequencing strategy. Downstream analysis was performed using a combination of programs including STAR, HTseq, Cufflink and Novogene's wrapped scripts. Alignments were parsed using the STAR program and differential expressions were determined using DESeq2/edgeR. Gene Ontology (GO) and Kyoto Encyclopedia of Genes and Genomes (KEGG) enrichment were implemented using the ClusterProfiler.
# Metabolomic analysis: Metabolomics analyses were performed at the West Coast Metabolomics Center of the University of California Davis, as described^55. Briefly, frozen lumbar spinal cord (L4-L6) fragments (˜5 mg) were homogenized in Eppendorf tubes (2 ml) for 2 min using metal spheres ([…] diameter) in a MM300 mill (Retsch, Germany). A mixture of isopropanol/acetonitrile/water (3/3/2, vol) was added to the grounded tissue (1 ml per 20 mg), stirred for 10 s and shaken at 4° C. for 5 min. […]
# [12] = target: T1, PPAR-α (Homo sapiens, UniProt Q07869); conditions: activation of PPAR-α by exogenous PEA; cited from earlier work
# T1 sequence (Q07869 1-468): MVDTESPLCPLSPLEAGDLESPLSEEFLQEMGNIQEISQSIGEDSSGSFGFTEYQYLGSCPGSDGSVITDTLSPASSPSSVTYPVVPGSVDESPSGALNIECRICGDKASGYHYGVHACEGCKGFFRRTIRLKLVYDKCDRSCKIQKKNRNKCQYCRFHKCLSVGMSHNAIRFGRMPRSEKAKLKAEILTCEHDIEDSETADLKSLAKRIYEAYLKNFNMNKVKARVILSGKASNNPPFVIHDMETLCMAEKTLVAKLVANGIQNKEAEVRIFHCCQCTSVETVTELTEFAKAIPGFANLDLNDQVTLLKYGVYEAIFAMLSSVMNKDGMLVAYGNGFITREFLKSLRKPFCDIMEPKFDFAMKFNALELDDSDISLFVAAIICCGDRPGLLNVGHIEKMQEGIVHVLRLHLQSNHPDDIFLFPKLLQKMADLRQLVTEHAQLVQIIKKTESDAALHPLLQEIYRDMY
# [13] = system: naïve mice; assay: Capsaicin-evoked nocifensive behavior; type: in vivo, mouse
# Protocol: Capsaicin: Capsaicin or its vehicle was injected into the plantar surface of the left hind paw (20 μl) or left forepaw (10 μl), i.e. contralaterally to the formalin injection site. Nocifensive behavior was videorecorded for 10 min and evaluated under blinded conditions.
# [14] = system: macrophages; conditions: cited from earlier work
# [15] = system: rodents; conditions: male (but not female) rodents; cited from earlier work
# [16] = system: male rat model of type-1 diabetes; conditions: cited from earlier work
smiles,measurement,setting,value
O=C(CCc1ccccc1)N[C@H]1COC1=O [(S)-OOPP],PEA levels in activated leukocytes,[1],reinstates normal
same,inflammatory responses induced by carrageenan or endotoxin,[1],blunts
C[C@@H]1OC(=O)[C@@H]1NC(=O)OCCCCCc1ccccc1 [ARN077],persistent hypersensitivity (CPLS) elicited by formalin,"[2]; post-injury intrathecal infusion, 30 ng, 5 μL, at PFD2 and PFD4, assessed PFD14",stopped
same,crossing of the blood-brain barrier,[3],cannot cross; also recorded: does not cross
same,"sensory abnormalities caused by carrageenan injection, ultraviolet B-radiation or CCI",[4],corrects
same,mechanical hypersensitivity,[5],reduces
same,calcium signaling,[6],rapidly normalizes
same,PEA levels in diseased tissues,[7],restores baseline
CCCCc1ccc(OC2C[C@H]3CC[C@@H](C2)N3S(=O)(=O)c2c(C)n[nH]c2C)cc1 (some centres unmarked) [ARN16186],protective effects of ARN19702 against CPLS (contralateral hyperalgesia),"[2]; ARN16186 10 mg-kg^−1 IP once daily PFD1 to PFD3, male mice",mimicked
same,"NAAA-null phenotype (weakened nocifensive response, no inflammation or persistent hypersensitivity after formalin)","[2]; pretreatment of wild-type mice, ARN19702 30 mg-kg^−1 IP, ARN16186 10 mg-kg^−1 IP",recapitulated
same,persistent contralateral hyperalgesia (PFD14),"[2]; pretreatment, ARN16186 10 mg-kg^−1 IP, ARN19702 30 mg-kg^−1 IP, wild-type mice, 1% formalin",prevents
same,paw edema (PFD14),[8],prevents
same,baseline nociceptive thresholds,[9],Neither compound affected
same,nocifensive response to formalin,[10],prevents
CCC(=O)NC[C@H](Cc1ccc(OCCc2nc(-c3ccccc3)oc2C)cc1)N/C(C)=C\C(=O)c1ccc(C(F)(F)F)cc1 [GW6471],loss of the ARN19702 effect on transition to CPLS,"[2]; wild-type animals pretreated with GW6471 4 mg-kg^−1 IP, 15 min prior to ARN19702",replicated
same,effects of ARN077 on sensory abnormalities in the presence of the PPAR-α antagonist,[4]; rats,prevented
CC(C)(Sc1ccc(CCN(CCCCC2CCCCC2)C(=O)NC2CCCCC2)cc1)C(=O)O [GW7647],pain chronification (contralateral hyperalgesia),[2]; NAAA-overexpressing mice treated with 0.1% formalin,stopped
same,pain chronification (contralateral hyperalgesia),[2]; wild-type mice treated with 1% formalin,stopped
same,injury-associated changes in spinal-cord transcription,[11],prevented
"CCCCCCCCCCCCCCCC(=O)NCCO [PEA, palmitoylethanolamide]",CPLS,"[2]; on PFD2-4, PEA 30 mg-kg^−1 subcutaneous, fenofibrate 100 mg-kg^−1 IP",blocked
same,"sensory abnormalities caused by carrageenan injection, ultraviolet B-radiation or CCI",[4],mimicked
same,inflammation,[12],attenuates
same,mitochondrial respiration,[12],stimulates
same,pain,[12],attenuates
NC(=O)c1cccc(-c2cccc(OC(=O)NC3CCCCC3)c2)c1 [URB597],emergence of formalin-induced CPLS (contralateral hyperalgesia and allodynia),"[2]; URB597 3 mg-kg^−1 IP once daily from PFD3 to PFD5, male mice",prevents the emergence
COc1cc(CNC(=O)CCCC/C=C/C(C)C)ccc1O [capsaicin],"median effective dose (ED50), nocifensive response","[13]; forepaw CPS injection, formalin-naïve mice",~0.1 µg
same,"half-maximal dose, nocifensive response",[13]; intraplantar hind paw injection,0.1 µg
NCC1(CC(=O)O)CCCCC1 [gabapentin],"conversion to CPLS (contralateral hyperalgesia, PFD14)",[2],not mimicked; also recorded: failed to stop; also recorded: do not prevent; also recorded: fail to prevent
same,alleviation of the hypersensitive state (contralateral hyperalgesia),[2],only temporarily alleviated
CNC1(c2ccccc2Cl)CCCCC1=O (centres unmarked) [ketamine],"conversion to CPLS (contralateral hyperalgesia, PFD14)",[2],not mimicked; also recorded: failed to stop; also recorded: do not prevent; also recorded: fail to prevent
CC(C(=O)O)c1cccc(C(=O)c2ccccc2)c1 (centres unmarked) [ketoprofen],"conversion to CPLS (contralateral hyperalgesia, PFD14)",[2],not mimicked; also recorded: failed to stop; also recorded: do not prevent; also recorded: fail to prevent
CN(C)C(=N)N=C(N)N [metformin],macrophage phenotype shift toward glycolysis / trained immunity,[14],stopped
same,neuropathic pain,[15],prevents
same,therapeutic efficacy in painful peripheral neuropathy,[16],may exhibit therapeutic efficacy
CN1CC[C@]23c4c5ccc(O)c4O[C@H]2[C@@H](O)C=C[C@H]3[C@H]1C5 [morphine],alleviation of the hypersensitive state (contralateral hyperalgesia),[2],only temporarily alleviated

# From patent US20240252486A1, “ALGOSTATIC AGENTS FOR PREVENTING TRANSITION FROM ACUTE TO CHRONIC PAIN” (The Regents of the University of California, priority 2021, published 2024)
